Assay [1] relates to Sporothrix schenckii. The assay can be described thus: Antifungal activity against Sporothrix schenckii assessed as lowest dose level for total inhibition of fungal growth. Format: functional.
Assay [2] deals with Aspergillus fumigatus. Briefly: Antifungal activity against Aspergillus fumigatus assessed as lowest dose level for total inhibition of fungal growth. The class given is functional.
Assay [3] relates to Candida tropicalis. Briefly: Antifungal activity against Candida tropicalis assessed as lowest dose level for total inhibition of fungal growth. The class given is functional.
The test system of assay [4] is Streptococcus pyogenes. The assay can be described thus: Antibacterial activity against Streptococcus pyogenes assessed as lowest dose level for total inhibition of bacterial growth. The class given is functional.
The test system of assay [5] is Cryptococcus neoformans. Briefly: Antifungal activity against Cryptococcus neoformans assessed as lowest dose level for total inhibition of fungal growth. The class given is functional.
Assay [6] has as its system Saprolegnia. Briefly: Antifungal activity against Saprolegnia species assessed as lowest dose level for total inhibition of fungal growth. The class given is functional.
Assay [7] deals with Erysipelothrix rhusiopathiae. The assay can be described thus: Antibacterial activity against Erysipelothrix insidiosa assessed as lowest dose level for total inhibition of bacterial growth. The class given is functional.
Assay [8] concerns Microsporum canis. Briefly: Antifungal activity against Microsporum canis assessed as lowest dose level for total inhibition of fungal growth. The class given is functional.
Assay [9] relates to Trichophyton mentagrophytes. Briefly: Antifungal activity against Trichophyton mentagrophytes assessed as lowest dose level for total inhibition of fungal growth. The class given is functional.
Assay [10] deals with Candida albicans. Briefly: In vivo antifungal activity against Candida albicans topically infected in guinea pig assessed as animal cured at 10 mg/kg, po. Set-up: dose 10 mg/kg. The class given is functional, organism-based.
In assay [11] the test system is Mucor. The assay can be described thus: Antifungal activity against Mucor species assessed as lowest dose level for total inhibition of fungal growth. Format: functional.
Assay [12] has as its system Phialophora verrucosa. The assay can be described thus: Antifungal activity against Phialophora verrucosa assessed as lowest dose level for total inhibition of fungal growth. The class given is functional.
For assay [13], the system named is Staphylococcus haemolyticus. The assay can be described thus: Antibacterial activity against Staphylococcus haemolyticus assessed as lowest dose level for total inhibition of bacterial growth. Format: functional.
In assay [14] the test system is Trichophyton rubrum. Briefly: Antifungal activity against Trichophyton rubrum assessed as lowest dose level for total inhibition of fungal growth. The class given is functional.
The test system of assay [15] is Candida albicans. The assay can be described thus: Antifungal activity against Candida albicans assessed as lowest dose level for total inhibition of fungal growth. The class given is functional.

Active and inactive are the calls of the source. The calls are words filed in the database; no cut-off is given here.

Drawing on ChEMBL document CHEMBL3271999, “Antimycotic imidazoles. 2. Synthesis and antimycotic properties of 1-[2-(arylalkyl)-2-phenylethyl]-1H-imidazoles” (1977), this text covers Activity for 12 compounds.

As to `Clc1ccc(C(CCc2ccccc2)Cn2ccnc2)c(Cl)c1.O=[N+]([O-])O` (configuration not stated), the Activity in assay [1] was 10 µg/mL; in assay [2] it was 100 µg/mL; in assay [3], above 100 µg/mL; in assay [4] it was below 1 µg/mL; in assay [5], below 1 µg/mL; in [6] it was 10 µg/mL. Also, the Activity in assay [7] is below 1 µg/mL; in [8], 10 µg/mL; in assay [9] it was below 1 µg/mL; in assay [11], 100 µg/mL; in [12], 10 µg/mL; in assay [13], 1 µg/mL. Further, the Activity in assay [14] is below 1 µg/mL; in assay [15], 100 µg/mL. Moreover, the result in assay [10] was inactive.
For `Clc1ccc(CC(Cn2ccnc2)c2c(Cl)cccc2Cl)c(Cl)c1.O=[N+]([O-])O` (configuration not stated), the Activity was 10 µg/mL in [1]; 100 µg/mL in [2]; above 100 µg/mL in assay [3]; below 1 µg/mL in assay [4]; 10 µg/mL in assay [5]; 100 µg/mL in assay [6]. In addition, the Activity in assay [7] was 1 µg/mL; in [8], 10 µg/mL; in assay [9], 10 µg/mL; in assay [11], 100 µg/mL; in assay [12], above 100 µg/mL; in [13], 10 µg/mL. Moreover, the Activity in [14] is below 1 µg/mL; in assay [15], above 100 µg/mL. For the same compound, the outcome in [10] was inactive.
Consider `Clc1ccc(C(Cc2ccc(Br)cc2)Cn2ccnc2)c(Cl)c1.O=[N+]([O-])O` (configuration not stated), for which the Activity is 10 µg/mL in assay [1]; 100 µg/mL in assay [2]; 10 µg/mL in [3]; below 1 µg/mL in assay [4]; below 1 µg/mL in [5]; 100 µg/mL in assay [6]. In addition, the Activity was below 1 µg/mL in assay [7]; 10 µg/mL in assay [8]; below 1 µg/mL in assay [9]; 10 µg/mL in assay [11]; 10 µg/mL in [12]; 10 µg/mL in assay [13]. For the same compound, the Activity in [14] is below 1 µg/mL; in [15], 10 µg/mL. Moreover, the outcome in assay [10] was inactive.
Turning to `Clc1ccc(CC(Cn2ccnc2)c2ccccc2Br)c(Cl)c1.O=[N+]([O-])O` (configuration not stated), the Activity is 10 µg/mL in assay [1]; 10 µg/mL in [2]; 100 µg/mL in [3]; 10 µg/mL in assay [4]; below 1 µg/mL in [5]; 100 µg/mL in [6]. The Activity is below 1 µg/mL in [7]; 10 µg/mL in [8]; below 1 µg/mL in assay [9]; 10 µg/mL in assay [11]; 100 µg/mL in assay [12]; below 1 µg/mL in [13]. The results for the Activity in assay [14] and in [15] were below 1 µg/mL and 10 µg/mL, respectively. In assay [10], the outcome was inactive.
In the case of `Clc1ccc(CCC(Cn2ccnc2)c2ccc(Cl)cc2Cl)cc1.O=[N+]([O-])O` (configuration not stated), the Activity in assay [1] was below 1 µg/mL; in [2], 100 µg/mL; in [3], 10 µg/mL; in [4], below 1 µg/mL; in assay [5], below 1 µg/mL; in assay [6], 10 µg/mL. Also, the Activity in [7] is below 1 µg/mL; in [8], 10 µg/mL; in [9] it was below 1 µg/mL; in [11], 100 µg/mL; in assay [12], 10 µg/mL; in assay [13] it was 1 µg/mL. Moreover, the Activity was below 1 µg/mL in assay [14] and 10 µg/mL in assay [15]. Also, the result in assay [10] was inactive.
Take `Clc1ccccc1CC(Cn1ccnc1)c1ccccc1Cl.O=[N+]([O-])O` (configuration not stated): the Activity in assay [1] was 10 µg/mL; in assay [2] it was 10 µg/mL; in [3], above 100 µg/mL; in assay [4], below 1 µg/mL; in [5] it was below 1 µg/mL; in [6] it was 100 µg/mL. Besides, the Activity in assay [7] was 1 µg/mL; in assay [8] it was 10 µg/mL; in assay [9] it was below 1 µg/mL; in assay [11], 100 µg/mL; in assay [12] it was 100 µg/mL; in assay [13] it was 100 µg/mL. The Activity is below 1 µg/mL in assay [14] and 100 µg/mL in assay [15]. The outcome in assay [10] was inactive.
Turning to `Clc1ccc(CC(Cn2ccnc2)c2ccccc2Cl)c(Cl)c1.O=[N+]([O-])O` (configuration not stated), the Activity in assay [1] is 10 µg/mL; in assay [2], 100 µg/mL; in assay [3] it was above 100 µg/mL; in assay [4], below 1 µg/mL; in [5] it was below 1 µg/mL; in [6] it was 100 µg/mL. In addition, the Activity in assay [7] is 10 µg/mL; in assay [8], 10 µg/mL; in assay [9], below 1 µg/mL; in assay [11], 100 µg/mL; in assay [12], 100 µg/mL; in assay [13], 100 µg/mL. In addition, the Activity in assay [14] is below 1 µg/mL; in [15], 100 µg/mL. Further, the outcome in [10] was inactive.
`Clc1ccc(CC(Cn2ccnc2)c2ccc(Cl)cc2Cl)c(Cl)c1.O=[N+]([O-])O` (configuration not stated): the Activity in assay [1] is below 1 µg/mL; in assay [2] it was 100 µg/mL; in assay [3], 10 µg/mL; in [4], below 1 µg/mL; in [5], below 1 µg/mL; in [6] it was 100 µg/mL. In addition, the Activity was below 1 µg/mL in [7]; 10 µg/mL in assay [8]; below 1 µg/mL in assay [9]; 100 µg/mL in assay [11]; 100 µg/mL in assay [12]; 10 µg/mL in assay [13]. For the same compound, the Activity in [14] is below 1 µg/mL; in assay [15] it was 10 µg/mL. For the same compound, in [10], the outcome was inactive.
For `Clc1ccc(C(Cc2ccccc2)Cn2ccnc2)c(Cl)c1.O=[N+]([O-])O` (configuration not stated), the Activity in [1] was 10 µg/mL; in [2], 100 µg/mL; in [3], 10 µg/mL; in [4] it was below 1 µg/mL; in assay [5] it was below 1 µg/mL; in assay [6] it was 10 µg/mL. For the same compound, the Activity in assay [7] is below 1 µg/mL; in assay [8], 10 µg/mL; in assay [9], below 1 µg/mL; in assay [11] it was 100 µg/mL; in [12], 10 µg/mL; in [13], 10 µg/mL. In addition, the Activity in [14] is below 1 µg/mL; in [15], 100 µg/mL. The result in [10] was inactive.
For the compound `Cc1ccccc1C(Cc1ccc(Cl)cc1Cl)Cn1ccnc1.O=[N+]([O-])O` (configuration not stated), the Activity in assay [1] is 10 µg/mL; in assay [2], 10 µg/mL; in [3], 100 µg/mL; in assay [4] it was 10 µg/mL; in assay [5], 10 µg/mL; in [6], 100 µg/mL. In addition, the Activity in assay [7] was 1 µg/mL; in assay [8] it was 10 µg/mL; in assay [9] it was below 1 µg/mL; in assay [11], 10 µg/mL; in [12], 100 µg/mL; in assay [13], 10 µg/mL. Further, the Activity was below 1 µg/mL in assay [14] and 100 µg/mL in assay [15].
For the compound `Clc1ccc(C(Cc2ccccc2Cl)Cn2ccnc2)c(Cl)c1.O=[N+]([O-])O` (configuration not stated), the Activity is below 1 µg/mL in [1]; 100 µg/mL in assay [2]; below 1 µg/mL in assay [3]; below 1 µg/mL in assay [4]; below 1 µg/mL in [5]; 10 µg/mL in [6]. For the same compound, the Activity in assay [7] was below 1 µg/mL; in assay [8], 10 µg/mL; in [9] it was below 1 µg/mL; in [11] it was 100 µg/mL; in assay [12], 10 µg/mL; in assay [13], 10 µg/mL. In addition, the figures for the Activity in assay [14] and in [15] were below 1 µg/mL and 100 µg/mL, respectively.
For `Clc1ccc(CC(Cn2ccnc2)c2ccccc2Br)cc1.O=[N+]([O-])O` (configuration not stated), the Activity in assay [1] is 10 µg/mL; in assay [2], 100 µg/mL; in [3], above 100 µg/mL; in assay [4], 1 µg/mL; in assay [5], below 1 µg/mL; in [6] it was 100 µg/mL. Moreover, the Activity in assay [7] is below 1 µg/mL; in assay [8], 100 µg/mL; in [9], below 1 µg/mL; in [11], 100 µg/mL; in [12], 100 µg/mL; in assay [13] it was 10 µg/mL. Moreover, the values for the Activity in assay [14] and in assay [15] were below 1 µg/mL and 10 µg/mL, respectively.
